# Test results published in patent US20170305943A1, “COMPOUNDS FOR THE TREATMENT OF BACTERIAL INFECTIONS” (priority 2014, published 2017).
# System: Clostridium difficile (Isolate ID ATCC 9689)
# Assay: Bacterial Assay: Determination of Antibacterial Activity (MIC, broth microdilution or agar dilution)
# Type: cell-based
# Settings: Clostridioides difficile, ATCC9689, 48 h, read-out: C. difficile MIC Activity Range
# In short: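 MICs were set by CLSI broth microdilution or agar dilution for anaerobes, read visually after 48 hours at 37° C. under anaerobic gas packs. Medium was reinforced clostridial medium with 0.1% defibrinated horse blood; values are binned as A ≦1.01, B >1.0-4.0, C >4.0-16 μg/mL.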
row,Structure (SMILES),MIC
1,"NC(=O)c1c(F)ccc(OCCCCOc2ccc(Cl)cc2Cl)c1F [Compound 137, 3-[4-(2,4-dichlorophenoxy)butoxy]-2,6-difluorobenzamide]",< 1.01 µg/mL
2,"CCOC(=O)c1ccc(OCCCCOc2ccc(F)c(C(N)=O)c2F)cc1 [Compound 138, ethyl 4-[4-(3-carbamoyl-2,4-difluorophenoxy)butoxy]benzoate]",< 1.01 µg/mL
3,"NC(=O)c1c(F)ccc(OCCCCOc2ccccc2Cl)c1F [Compound 139, 3-[4-(2-chlorophenoxy)butoxy]-2,6-difluorobenzamide]",4 to 16 µg/mL
4,"NC(=O)c1c(F)ccc(OCCCCOc2cccc(Cl)c2)c1F [Compound 140, 3-[4-(3-chlorophenoxy)butoxy]-2,6-difluorobenzamide]",1 to 4 µg/mL
5,"NC(=O)c1c(F)ccc(OCCCCOc2ccc(C(F)(F)F)cn2)c1F [Compound 141, 2,6-difluoro-3-(4-{[5-(trifluoromethyl)pyridin-2-yl]oxy}butoxy)benzamide]",< 1.01 µg/mL
6,"NC(=O)c1c(F)ccc(OCCCCNc2ccc(Cl)cc2)c1F [Compound 142, 3-{4-[(4-chlorophenyl)amino]butoxy}-2,6-difluorobenzamide]",1 to 4 µg/mL
7,"NC(=O)c1c(F)ccc(OCCCCOc2ccc(Cl)cn2)c1F [Compound 143, 3-{4-[(5-chloropyridin-2-yl)oxy]butoxy}-2,6-difluorobenzamide]",< 1.01 µg/mL
8,"NC(=O)c1c(F)ccc(OCCCCOc2ccc(C(F)(F)F)nc2)c1F [Compound 144, 2,6-difluoro-3-(4-{[6-(trifluoromethyl)pyridin-3-yl]oxy}butoxy)benzamide]",1 to 4 µg/mL
9,"NC(=O)c1c(F)ccc(OCCOCCOc2ccc(OC(F)(F)F)cc2)c1F [Compound 145, 2,6-difluoro-3-(2-{2-[4-(trifluoromethoxy)phenoxy]ethoxy}ethoxy) benzamide]",< 1.01 µg/mL
10,"NC(=O)c1c(F)ccc(OCCOCCOc2ccc(C(F)(F)F)cc2)c1F [Compound 146, 2,6-difluoro-3-(2-{2-[4-(trifluoromethyl)phenoxy]ethoxy}ethoxy) benzamide]",< 1.01 µg/mL
11,"NC(=O)c1c(F)ccc(OCCCCNc2ccc(C(F)(F)F)cc2)c1F [Compound 147, 2,6-difluoro-3-(4-{[4-(trifluoromethyl)phenyl]amino}butoxy) benzamide]",1 to 4 µg/mL
12,"NC(=O)c1c(F)ccc(OCCCCNc2ccc(OC(F)(F)F)cc2)c1F [Compound 148, 2,6-difluoro-3-(4-{[4-(trifluoromethoxy)phenyl]amino}butoxy) benzamide]",< 1.01 µg/mL
13,NC(=O)c1c(F)ccc(OCCCCOc2ccc(OC(F)F)cc2)c1F [Compound 149],< 1.01 µg/mL
14,"NC(=O)c1c(F)ccc(NCCCCOc2ccc(OC(F)(F)F)cc2)c1F [Compound 150, 2,6-difluoro-3-({4-[4-(trifluoromethoxy)phenoxy]butyl}amino) benzamide]",1 to 4 µg/mL
15,"NC(=O)c1c(F)ccc(OCCCCOc2ccccc2)c1F [Compound 151, 2,6-difluoro-3-(4-phenoxybutoxy)benzamide]",1 to 4 µg/mL
16,"NC(=O)c1c(F)ccc(OCCCCSc2ccc(Cl)cc2)c1F [Compound 153, 3-{4-[(4-chlorophenyl)thio]butoxy}-2,6-difluorobenzamide]",< 1.01 µg/mL
17,"COc1ccc(OCCCCOc2ccc(F)c(C(N)=O)c2F)cc1 [Compound 154, 2,6-difluoro-3-[4-(4-methoxyphenoxy)butoxy]benzamide]",1 to 4 µg/mL
18,"NC(=O)c1c(F)ccc(OCCOCCOc2ccc(C(F)(F)F)cn2)c1F [Compound 156, 2,6-difluoro-3-[2-(2-{[5-(trifluoromethyl)pyridin-2-yl]oxy}ethoxy)ethoxy]benzamide]",1 to 4 µg/mL
19,"NC(=O)c1c(F)ccc(SCCCCOc2ccc(OC(F)(F)F)cc2)c1F [Compound 157, 2,6-difluoro-3-({4-[4-(trifluoromethoxy)phenoxy]butyl}thio)benzamide]",1 to 4 µg/mL
20,"NC(=O)c1c(F)ccc(OCCCCOc2ccc(C(F)(F)F)nn2)c1F [Compound 158, 2,6-difluoro-3-(4-{[6-(trifluoromethyl)pyridazin-3-yl]oxy}butoxy)benzamide]",4 to 16 µg/mL
21,"NC(=O)c1c(F)ccc(OCCCCOc2ccc(F)cc2F)c1F [Compound 162, 3-[4-(2,4-difluorophenoxy)butoxy]-2,6-difluorobenzamide]",1 to 4 µg/mL
22,"NC(=O)c1c(F)ccc(OCCCCOc2ccc(OC(F)(F)F)c(Br)c2)c1F [Compound 163, 3-{4-[3-bromo-4-(trifluoromethoxy)phenoxy]butoxy}-2,6-difluorobenzamide]",< 1.01 µg/mL
23,"NC(=O)c1c(F)ccc(OCCCCOc2ccc(OC(F)(F)F)c(Cl)c2)c1F [Compound 164, 3-{4-[3-chloro-4-(trifluoromethoxy)phenoxy]butoxy}-2,6-difluorobenzamide]",< 1.01 µg/mL

row,Structure (SMILES),MIC
1,"NC(=O)c1c(F)ccc(OCCCCOc2cccc(C(F)(F)F)c2)c1F [Compound 165, 2,6-difluoro-3-{4-[3-(trifluoromethyl)phenoxy]butoxy}benzamide]",1 to 4 µg/mL
2,"NC(=O)c1c(F)ccc(OCCCCOc2cccc(OC(F)(F)F)c2)c1F [Compound 166, 2,6-difluoro-3-{4-[3-(trifluoromethoxy)phenoxy]butoxy} benzamide]",< 1.01 µg/mL
3,"NC(=O)c1c(F)ccc(OCCCCOc2cccc(F)c2)c1F [Compound 167, 2,6-difluoro-3-[4-(3-fluorophenoxy)butoxy] benzamide]",1 to 4 µg/mL
4,"NC(=O)c1c(F)ccc(OCCCCOc2ccc(F)cc2)c1F [Compound 168, 2,6-difluoro-3-[4-(4-fluorophenoxy)butoxy] benzamide]",1 to 4 µg/mL
5,"NC(=O)c1c(F)ccc(OCCCCOc2ccc(Cl)c(C(F)(F)F)c2)c1F [Compound 169, 3-{4-[4-chloro-3-(trifluoromethyl)phenoxy]butoxy}-2,6-difluorobenzamide]",< 1.01 µg/mL
6,"NC(=O)c1c(F)ccc(OCCCCOc2ccc(F)c(F)c2)c1F [Compound 170, 3-[4-(3,4-difluorophenoxy)butoxy]-2,6-difluorobenzamide]",1 to 4 µg/mL
7,"NC(=O)c1c(F)ccc(OCCCCOc2ccc(Cl)c(Cl)c2)c1F [Compound 171, 3-[4-(3,4-dichlorophenoxy)butoxy]-2,6-difluorobenzamide]",< 1.01 µg/mL
8,"NC(=O)c1c(F)ccc(OCCCCOc2cccc(Br)c2)c1F [Compound 172, 3-[4-(3-bromophenoxy)butoxy]-2,6-difluorobenzamide]",1 to 4 µg/mL
9,"N#Cc1cccc(OCCCCOc2ccc(F)c(C(N)=O)c2F)c1 [Compound 173, 3-[4-(3-cyanophenoxy)butoxy]-2,6-difluorobenzamide]",4 to 16 µg/mL
10,"NC(=O)c1c(F)ccc(OCCCCOc2cccc(S(F)(F)(F)(F)F)c2)c1F [Compound 174, 2,6-difluoro-3-{4-[3-(pentafluoro-lambda~6~- sulfanyl)phenoxy]butoxy}benzamide]",< 1.01 µg/mL
11,"CC(C)(C)c1ccc(OCCCCOc2ccc(F)c(C(N)=O)c2F)cc1 [Compound 175, 3-[4-(4-tert-butylphenoxy)butoxy]-2,6-difluorobenzamide]",< 1.01 µg/mL
12,"NC(=O)c1c(F)ccc(OCCCCOc2ccc(Br)cc2)c1F [Compound 176, 3-[4-(4-bromophenoxy)butoxy]-2,6-difluorobenzamide]",< 1.01 µg/mL
13,"N#Cc1ccc(OCCCCOc2ccc(F)c(C(N)=O)c2F)cc1 [Compound 177, 3-[4-(4-cyanophenoxy)butoxy]-2,6-difluorobenzamide]",1 to 4 µg/mL
14,"N/C(=N\O)c1c(F)ccc(OCCCCOc2ccc(C(F)(F)F)cn2)c1F [Compound 178, 2,6-difluoro-N′-hydroxy-3-(4-{[5-(trifluoromethyl)pyridin-2-yl]oxy}butoxy)benzenecarboximidamide]",4 to 16 µg/mL
15,"NC(=O)c1c(F)ccc(NCCCCOc2ccc(C(F)(F)F)cn2)c1F [Compound 179, 2,6-difluoro-3-[(4-{[5-(trifluoromethyl)pyridin-2-yl]oxy}butyl)amino]benzamide]",4 to 16 µg/mL
16,"CN(CCCCOc1ccc(C(F)(F)F)cn1)c1ccc(F)c(C(N)=O)c1F [Compound 180, 2,6-difluoro-3-[methyl(4-{[5-(trifluoromethyl)pyridin-2-yl]oxy}butyl)amino]benzamide]",1 to 4 µg/mL
17,"NC(=O)c1c(F)ccc(N(CCO)CCCCOc2ccc(OC(F)(F)F)cc2)c1F [Compound 181, 2,6-difluoro-3-[(2-hydroxyethyl){4-[4-(trifluoromethoxy)phenoxy]butyl}amino] benzamide]",1 to 4 µg/mL
18,"N#CCCCN(CCCCOc1ccc(OC(F)(F)F)cc1)c1ccc(F)c(C(N)=O)c1F [Compound 182, 3-[(3-cyanopropyl){4-[4-(trifluoromethoxy)phenoxy]butyl)amino]-2,6-difluorobenzamide]",4 to 16 µg/mL
19,"NC(=O)CN(CCCCOc1ccc(OC(F)(F)F)cc1)c1ccc(F)c(C(N)=O)c1F [Compound 183, 3-[(2-amino-2-oxoethyl){4-[4-(trifluoromethoxy)phenoxy]butyl}amino]-2,6-difluorobenzamide]",4 to 16 µg/mL
20,"COCCN(CCCCOc1ccc(OC(F)(F)F)cc1)c1ccc(F)c(C(N)=O)c1F [Compound 184, 2,6-difluoro-3-[(2-methoxyethyl){4-[4-(trifluoromethoxy)phenoxy]butyl}amino]benzamide]",1 to 4 µg/mL
21,"Cc1ccc(CN(CCCCOc2ccc(OC(F)(F)F)cc2)c2ccc(F)c(C(N)=O)c2F)cn1 [Compound 185, 2,6-difluoro-3-([(6-methylpyridin-3-yl)methyl]{4-[4-(trifluoromethoxy)phenoxy]butyl}amino)benzamide]",4 to 16 µg/mL
22,"CCOC(=O)CN(CCCCOc1ccc(OC(F)(F)F)cc1)c1ccc(F)c(C(N)=O)c1F [Compound 186, ethyl N-(3-carbamoyl-2,4-difluorophenyl)-N-{4-[4-(trifluoromethoxy)phenoxy]butyl}glycinate]",1 to 4 µg/mL
23,"NC(=O)c1c(F)ccc(N(CCCCOc2ccc(OC(F)(F)F)cc2)CC(=O)O)c1F [Compound 187, N-(3-carbamoyl-2,4-difluorophenyl)-N-{4-[4-(trifluoromethoxy)phenoxy]butyl}glycine]",4 to 16 µg/mL
